Key:
[1] = test system: Fb859 propionic acidemia patient fibroblasts; assay: Lysine succinylation of cellular proteins by immunofluorescence confocal microscopy; format: cell-based, human; conditions: media without glucose; for lysine succinylation (green) signal: FIGS. 8A-8F, 30 μM and 90 μM, pyruvate, glutamine, stripped FBS; for lysine succinylation (green staining) compared to untreated cells: FIG. 7, 90 μM, 72 hours, glutamine or pyruvate, lipid stripped FBS
Method: FIG. 7 are immunocytochemistry photomicrographs showing the effect of incubation of Fb859 propionic acidemia patient fibroblasts on for lysine succinylation with 90 μM of PMA010, 90 μM of PMA011, 90 μM of succinic acid, 90 μM of methylmalonic acid, or 90 μM adipic acid for 72 hours. Immunocytochemistry of the fibroblast cells were stained for anti-succinyllysine antibody, anti-MTCO1 antibody and DAPI for nuclei. Instrument: Zeiss LSM 710 confocal Microscopy. Magnification: 40×. The cells were grown in glass coverslips at a seeding density of 3-5×10^4 cells. The media for untreated and treatment groups had no glucose, glutamine or pyruvate, and lipid stripped FBS was included instead of regular FBS. Scale bar=20 μm.
FIGS. 8A-8F are a comparison of lysine succinylation of cellular proteins visualized by immunofluorescence confocal microscopy in a Propionic Acidemia (Fb859) patient untreated (FIG. 8A) and treated with 30 μM and 90 μM of D-Serine (FIG. 8B), 30 µM and 90 μM of PMA007 (FIG. 8C), or 30 μM and 90 μM of PMA010 (FIG. 8D). Scale bar=20 μm. FIG. 8E is a bar graph showing the quantification of the percent change in lysine succinylation (green) signal, from the immunofluorescence confocal micrographs of FIGS. 8B and 8C, in response to the treatment of D-serine and PMA007. FIG. 8F is a bar graph showing the quantification of the percent change in lysine succinylation (green) signal, from the immunofluorescence confocal micrographs of a D-Serine repeat experiment and FIG. 8D, in response to the treatment of D-serine and PMA010. Asterisks indicate statistical significance calculated at the raw data level (n=3); **P<0.01, ***P<0.001, ****P<0.0001 statistically compared to untreated. Statistical analysis used T-test.
Immunohistochemistry: Patient cells were grown in glass coverslips at a seeding density of 3-5×10^4 cells. The media for untreated and treatment groups had no glucose, glutamine or pyruvate, and lipid stripped FBS was included instead of regular FBS. NIH Image J software was used to quantify the fluorescence intensity from 50-60 cells per group. Immunocytochemistry of propionic acidemia patient (Fb859) fibroblast cells lines stained for anti-succinyllysine (Green), anti-MTCO1 (Red), or anti-TOMM20 antibodies, and DAPI (Blue) for nuclei. Instrument: Zeiss LSM 710 confocal Microscopy. Statistical analysis used Tukey multiple range test. ****P<0.0001, [PMA010] (90 μM) treatment group statistically compared to control cells grown in the presence of regular complete DMEM media, untreated and [PMA010] (30 μM) cells grown in the absence of glucose/pyruvate/L-glutamine.

rat liver mitochondrial = conditions: in vitro; cited from earlier work
PA patient cells, Fb859 = assay: Measurement of mitochondrial respiration (Seahorse XF MitoStress test, OCR); format: cell-based, human; conditions: FIGS. 12A-12D; 30 μM and 90 μM for 72 h
Method: Measurement of Mitochondrial Respiration Seahorse: Fb859 cells were grown in regular DMEM media until 85-90% confluency. The cells were harvested and seeded at a concentration of 25,000 cells/80 μl (n=8 replicates) in poly-D lysine coated XFe seahorse 96well plate in regular DMEM media and incubated overnight at 37° C. in a 5% CO2 incubator. Following day, the culture media was replaced in designated wells with the following for 72 h:180 μl of Specialty Media A (seahorse XFDMEM base media+10% fat stripped FBS+Glucose+sodium pyruvate+L-glutamine+0.5 mM carnitine). 180 μl of Specialty Media B (scahorse XFDMEM base media+10% stripped FBS+0.5 mM carnitine and no added glucose, sodium pyruvate or glutamine). 180 μl of Specialty media B containing experimental compounds. After 72 h incubation the Specialty media A & B was replaced in respective designated wells with 180 μL Seahorse XF DMEM base media containing glucose, sodium pyruvate. […] OCR was determined (Seahorse XF MitoStress test). Finally, cells were lysed, and protein content was determined. […]
Measurement of Mitochondrial Respiration: Control Fb826 and Patient Fb859 cells were grown in regular DMEM media without adding extra glutamine until 85-90% confluency. […] Oxygen consumption rate (OCR) was determined (Seahorse XF MitoStress test). Finally, cells were lysed, and protein content was determined. […]

HEK293 PCCA−/− cells = assay: Lysine succinylation of cellular proteins by immunofluorescence confocal microscopy; format: cell-based, human; conditions: FIGS. 9C, 9D; 30 μM and 90 μM; media without glucose, pyruvate, and glutamine
Method: FIGS. 9A-9F are a comparison of lysine succinylation of cellular proteins visualized by immunofluorescence confocal microscopy in human HEK293 control and HEK293 PCCA^−/− cells untreated (FIGS. 9A and 9B) and treated with 30 μM and 90 μM of PMA007 (FIG. 9C) or 30 μM and 90 μM of PMA010 (FIG. 9D). The cells in FIGS. 9B, 9C, and 9D were grown in media without glucose, pyruvate, and glutamine. Scale bar=20 μm. FIG. 9E is a bar graph showing the quantification of the percent change in lysine succinylation (green) signal, from the immunofluorescence confocal micrographs of FIGS. 9B and 9C, in response to the treatment of PMA007. FIG. 9F is a bar graph showing the quantification of the percent change in lysine succinylation (green) signal, from the immunofluorescence confocal micrographs of FIGS. 9B and 9D, in response to the treatment of PMA010. Asterisks indicate statistical significance calculated at the raw data level (n=3); **P<0.01. ****P<0.0001 statistically compared to untreated. Statistical analysis used T-test.
FIGS. 9A-9F are a comparison of lysine succinylation of cellular proteins visualized by immunofluorescence confocal microscopy in human HEK293 control and in untreated and treated HEK293 PCCA^−/− knock out cells. […] The PMA007 treatment data in the bar graph of FIG. 9E are the quantitation of the images of FIG. 9C compared to untreated control in FIG. 9B. […]

[2] = test system: glutaric acidemia II (GA II) fibroblast cell line Fb961; assay: Mitochondrial ROS production using MitoSOX Red; format: cell-based, human; conditions: FIG. 15D; 1200 μM, 72 h; preliminary test
From the text: (§1) FIGS. 15A-15D are graphs showing the measurement of mitochondrial reactive oxygen species (ROS) production using MitoSOX Red as Superoxide indicator probe. FIG. 15A is a graph showing control fibroblast cell line FB826 treated with PMA010, PMA011, PMA019, and PMA020. FIG. 15B is a graph showing propionic acidemia (PA) patients' fibroblast cell linc Fb859 treated with PMA010, PMA011, PMA019, and PMA020. FIG. 15C is a graph showing propionic acidemia (PA) patients' fibroblast cells line Fb900 treated with PMA010, PMA011, PMA019, and PMA020. FIG. 15D is a graph comparing ROS production levels in response to treatment with PMA011 in Control fibroblast cell line (FB826), PA fibroblast cell line (Fb900), and glutaric acidemia II (GA II) patient fibroblast cell lines (Fb930, Fb961). Data are the average of readings from 3 replicate wells.
(§2) Measurement of mitochondrial ROS production using MitoSOX Red as superoxide indicator probe: control (Fb826), PA patient (Fb859, Fb900) and GA II patient (Fb930, Fb961) fibroblasts were grown in regular DMEM media containing glucose/pyruvate/L-glutamine until 85-90% confluency. The cells were harvested and seeded at a concentration of 25,000 cells/80 μl (n=3) in cell culture treated black wall 96 well microplate with clear bottom in regular DMEM media containing glucose/pyruvate/L-glutamine and incubated overnight at 37° C. in a 5% CO2 incubator. Following day, the culture media was replaced in designated wells with the following for 72 h: 150 μl regular DMEM (Glucose+10% FBS+sodium pyruvate+L-glutamine+0.5 mM carnitine). 150 μl of Regular DMEM containing experimental compounds (180 and 640 μM) PMA010 or PMA011 or PMA 019 and (640 μM) PMA020 in control and propionic acidemia patient fibroblasts. 150 μl of regular DMEM containing experimental compounds (600 and 1200 μM) PMA011 in Fb930 and (1200 μM) PMA011 in Fb961 GA II patient fibroblast. After 72 h incubation the wells were washed twice with 150 μL of Seahorse XFDMEM base media and in respective designated wells the following Assay buffer (150 μL of seahorse XFDMEM base media containing glucose, sodium pyruvate and Glutamine) was used along with 5 μM MitoSOX reagent and incubated at 37° C. non-CO2 incubator for 15 minutes protected from light. After 15 minutes incubation the cells were washed twice with 150 μL of seahorse XFDMEM base media and replaced with measurement buffer, which is same as the wash buffer. The fluorescence was monitored with excitation at 520 nm and emission at 580 nm. Finally, cells were lysed, and protein content was determined. Data is normalized to protein concentration and fluorescence is reported as MitoSOX Red (AFU)/mg protein.

[3] = test system: propionic acidemia (PA) fibroblast cell line Fb900; assay: Mitochondrial ROS production using MitoSOX Red; format: cell-based, human; conditions: FIG. 15C; 180 and 640 μM, 72 h
From the text: as §1, §2

[4] = test system: glutaric acidemia II (GA II) fibroblast cell line Fb930; assay: Mitochondrial ROS production using MitoSOX Red; format: cell-based, human; conditions: FIG. 15D; 600 and 1200 μM, 72 h; preliminary test
From the text: as §1, §2

PA patients = conditions: clinical study initiated in 2008; cited from earlier work

**Q.** Which “lysine succinylation (green) signal” value [1] does the source give for `N[C@H](CO)C(=O)O` [D-serine, reference compound] here?
**A.** Its value is “Restoration of lysine succinylation (green) signal”.

**Q.** Which “reduction of propionate level” value (rat liver mitochondrial) does the source give for `O=C(O)C[C@H](O)C(=O)O` [L-malate] here?
**A.** The value was 46%.

**Q.** And the “reduction of propionyl-CoA levels in the mitochondrial matrix” value (rat liver mitochondrial)?
**A.** Its value is 62%.

**Q.** Which “oxygen consumption parameters compared to individual components D-Serine and D-Histidine” value (PA patient cells, Fb859) does the source give for `N[C@H](COC(=O)CCCCC(=O)O)C(=O)N[C@@H](Cc1c[nH]cn1)C(=O)O` [PMA007, 6-((R)-2-amino-3-(((S)-1-carboxy-2-(1H-imidazol-4-yl)ethyl)amino)-3-oxopropoxy)-6-oxohexanoic acid] here?
**A.** Its value is “improved”.

**Q.** And the “lysine succinylation (green) signal” value (HEK293 PCCA−/− cells)?
**A.** Its value is “green color was restored”.

**Q.** And the “lysine succinylation (green) signal” value [1]?
**A.** The value was “Restoration of lysine succinylation (green) signal”.

**Q.** With `CC(C(=O)O)C(=O)N[C@H](C)C(=O)N[C@H](Cc1c[nH]cn1)C(=O)O` (stereo partly drawn) [PMA011, 3-(((R)-1-(((R)-1-carboxy-2-(1H-imidazol-4-yl)ethyl)amino)-1-oxopropan-2-yl)amino)-2-methyl-3-oxopropanoic acid] as the compound, how does the “ROS detected (MitoSOX Red) compared to no treatment” value [2] read?
**A.** The value was “significant decrease in ROS”.

**Q.** And the “ROS detected (MitoSOX Red)” value [3]?
**A.** The value was “similarly effective”.

**Q.** What about the “ROS detected (MitoSOX Red) compared to no treatment” value [4] of the same compound?
**A.** Its value is “significant decrease in ROS”.

**Q.** What about the “lysine succinylation (green staining) compared to untreated cells” value [1] of the same compound?
**A.** The value was “obvious increase in the green staining”.

**Q.** Which “lysine succinylation (green staining) compared to untreated cells” value [1] does the source give for `O=C(O)CCCCC(=O)O` [adipic acid, reference compound] here?
**A.** The value was “obvious increase in the green staining”.

**Q.** With `O=C(O)CC(O)(CC(=O)O)C(=O)O` [citrate] as the compound, how does the “clinical benefit of supplementation” value (PA patients) read?
**A.** The value was “can be beneficial in some cases”.

**Q.** For `CC(C(=O)O)C(=O)O` [methylmalonic acid], which “lysine succinylation (green staining) compared to untreated cells” value [1] is on record?
**A.** Its value is “obvious increase in the green staining”.

**Q.** Which “lysine succinylation (green staining) compared to untreated cells” value [1] does the source give for `O=C(O)CCC(=O)O` [succinic acid, reference compound] here?
**A.** Its value is “obvious increase in the green staining”.

From patent US20260021186A1, “Fatty Acid-D-Amino Acid Peptides Conjugates as Anaplerotic Compounds for Use in Treating Propionic Acidemia, Methylmalonic Acidurias, and Energy Metabolic Disorders” (University of Pittsburgh - Of the Commonwealth System of …, priority 2022, published 2026)
